One experiment deals with wild-type (WT) truncated human STING protein, amino acids 155-379 (Homo sapiens (Human), UniProt Q86WV6, H232R). Put plainly: Human WT STING [3H] 2′,3′-cGAMP scintillation proximity competition binding assay. As to conditions: read-out: Human WT Binding IC50. The text has this: (§1) A human STING [^3H] 2′,3′-cGAMP scintillation proximity competition binding assay was utilized to detect binding of compounds to STING protein. […] The protein encoding plasmid contained a HIS tag, followed by an Avi tag and then a SUMO tag, which were followed by the STING coding sequence within the pET-28a (+) vector. The plasmid was transfected into a BL21 (DE3)/BirA E. coli co-expression strain. Protein was purified from the bacterial lysate using a cobalt-affinity column. The purified protein was dialyzed against PBS and then 20% glycerol was added prior to storage at −80° C.
Chain of wild-type (WT) truncated human STING protein, amino acids 155-379 (Q86WV6 155-379 H232R): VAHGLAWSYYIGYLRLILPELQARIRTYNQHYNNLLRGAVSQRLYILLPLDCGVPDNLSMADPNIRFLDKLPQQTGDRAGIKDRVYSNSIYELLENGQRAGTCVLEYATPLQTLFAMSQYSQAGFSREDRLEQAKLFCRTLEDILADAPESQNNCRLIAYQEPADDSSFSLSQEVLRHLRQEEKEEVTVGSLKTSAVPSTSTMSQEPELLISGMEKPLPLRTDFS
(§2) 2′,3′-cGAMP in assay buffer (50 mM Tris pH 7.5, 100 mM NaCl, 0.1% Fatty Acid Free BSA). Test compounds (2.5 μL) were added to the plate first followed by a 25 μL mixture of STING protein, streptavidin PVT SPA beads (Perkin Elmer) and 10 μL [^3H] 2′,3′-cGAMP. Plates were incubated at room temperature for 18 hrs and read on a Wallac MicroBeta TriLux (Perkin Elmer).
On to `C[C@H]1Cn2c(nc3cncnc32)COP(=O)(S)O[C@@H]2[C@H](F)[C@@H](COP(=O)(S)O1)O[C@H]2n1cnc2c(=O)[nH]c(N)nc21` (single isomer, unassigned) [Example 33C], for which the IC50 was 10000 to 100000 nM.

In the case of `Nc1nc2c(ncn2[C@@H]2O[C@@H]3COP(=O)(S)OCCn4c(nc5cncnc54)COP(=O)(S)O[C@@H]2[C@H]3F)c(=O)[nH]1` (single isomer, unassigned) [Example 25D], the IC50 was under 1000 nM.

`Nc1nc2c(ncn2[C@@H]2O[C@@H]3COP(=O)(S)OCCn4c(nc5cncnc54)COP(=O)(S)O[C@@H]2[C@H]3F)c(=O)[nH]1` (single isomer, unassigned) [Example 25B]: the concentration for half-maximal inhibition (IC50) fell in the range of 10000 to 100000 nM.

The target in the next experiment is AQ variant of truncated human STING protein, amino acids 155-379 (Homo sapiens (Human), UniProt Q86WV6, G230A/H232R/R293Q). As to the kind of experiment: Human AQ STING [3H] 2′,3′-cGAMP scintillation proximity competition binding assay. The note with it: read-out: Human AQ Binding IC50.
Chain of AQ variant of truncated human STING protein, amino acids 155-379 (Q86WV6 155-379 G230A/H232R/R293Q): as the sequence (Q86WV6 155-379 H232R) above, with G76A, R139Q counted along it
From the text: as §1, §2
Turning to `Nc1nc2c(ncn2[C@@H]2O[C@@H]3COP(=O)(S)OCCn4c(nc5cncnc54)COP(=O)(S)O[C@@H]2[C@H]3F)c(=O)[nH]1` (single isomer, unassigned) [Example 25D], the IC50 is under 1000 nM.

`Nc1nc2c(ncn2[C@@H]2O[C@@H]3COP(=O)(S)OCCn4c(nc5cncnc54)COP(=O)(S)O[C@@H]2[C@@H]3F)c(=O)[nH]1` (single isomer, unassigned) [Example 1A]: the IC50 was under 1000 nM.

For the next experiment, the target named is murine STING protein (amino acids 154-378) (Mus musculus (Mouse), UniProt Q3TBT3). As to the kind of experiment: Murine STING [3H] 2′,3′-cGAMP scintillation proximity competition binding assay. The note with it: read-out: Murine Binding IC50.
Chain of murine STING protein (amino acids 154-378) (Q3TBT3 154-378): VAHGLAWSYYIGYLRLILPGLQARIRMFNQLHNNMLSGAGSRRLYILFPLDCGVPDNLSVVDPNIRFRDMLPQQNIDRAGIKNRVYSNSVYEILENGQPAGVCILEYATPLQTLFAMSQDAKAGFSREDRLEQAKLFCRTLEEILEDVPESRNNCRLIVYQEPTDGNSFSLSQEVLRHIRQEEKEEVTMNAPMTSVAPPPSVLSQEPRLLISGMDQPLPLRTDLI
As for `Nc1nc2c(ncn2[C@@H]2O[C@@H]3COP(=O)(S)OCCn4c(nc5cc(Cl)cnc54)COP(=O)(S)O[C@@H]2[C@@H]3F)c(=O)[nH]1` (single isomer, unassigned) [Example 14D], the 50% inhibitory concentration (IC50) was under 1000 nM.

Take `Nc1nc2c(ncn2[C@@H]2O[C@@H]3COP(=O)(S)OCCn4nc(-c5cncs5)nc4COP(=O)(S)O[C@@H]2[C@@H]3F)c(=O)[nH]1` (single isomer, unassigned) [Example 16D]: the IC50 is under 1000 nM.

Turning to `Nc1nc2c(ncn2[C@@H]2O[C@@H]3COP(=O)(S)OCCn4c(nc5cncnc54)COP(=O)(O)O[C@@H]2[C@@H]3F)c(=O)[nH]1` (single isomer, unassigned) [Example 6A], the IC50 is under 1000 nM.

As for `Nc1nc2c(ncn2[C@@H]2O[C@@H]3COP(=O)(S)OCCn4c(nc5cncnc54)COP(=O)(O)O[C@@H]2[C@@H]3F)c(=O)[nH]1` (single isomer, unassigned) [Example 6B], the IC50 was under 1000 nM.

As to `Nc1nc2c(ncn2[C@@H]2O[C@@H]3COP(=O)(S)OCCn4c(nc5c(=O)[nH]cnc54)COP(=O)(S)O[C@@H]2[C@@H]3F)c(=O)[nH]1` (single isomer, unassigned) [Example 3C], the 50% inhibitory concentration (IC50) was under 1000 nM.

Regarding `Nc1nc2c(ncn2[C@@H]2O[C@@H]3COP(=O)(S)OCCn4nc(-c5ccncc5)nc4COP(=O)(S)O[C@@H]2[C@@H]3F)c(=O)[nH]1` (single isomer, unassigned) [Example 34B], the IC50 lay within 1000 to 9990 nM.

For `Nc1nc2c(ncn2[C@@H]2O[C@@H]3COP(=O)(S)OCCn4nc(-c5ccncc5)nc4COP(=O)(S)O[C@@H]2[C@@H]3F)c(=O)[nH]1` (single isomer, unassigned) [Example 34D], the IC50 fell in the range of 1000 to 9990 nM.

Consider `Nc1nc2c(ncn2[C@@H]2O[C@@H]3COP(=O)(S)OCCn4c(nc5cc(Cl)cnc54)COP(=O)(S)O[C@@H]2[C@@H]3F)c(=O)[nH]1` (single isomer, unassigned) [Example 14C], for which the 50% inhibitory concentration (IC50) is under 1000 nM.

In the case of `Nc1nc2c(ncn2[C@@H]2O[C@@H]3COP(=O)(S)OCCn4c(nc5cnccc54)COP(=O)(S)O[C@@H]2[C@@H]3F)c(=O)[nH]1` (single isomer, unassigned) [Example 17C], the IC50 is under 1000 nM.

For `Nc1nc2c(ncn2[C@@H]2O[C@@H]3COP(=O)(S)OCCn4c(nc5c(=O)[nH]cnc54)COP(=O)(S)O[C@@H]2[C@@H]3F)c(=O)[nH]1` (single isomer, unassigned) [Example 3B], the half-maximal inhibitory concentration (IC50) fell in the range of 1000 to 9990 nM.

In the case of `Nc1nc2c(nnn2[C@@H]2O[C@@H]3COP(=O)(S)OCCn4c(nc5cncnc54)COP(=O)(S)O[C@@H]2[C@@H]3F)c(=O)[nH]1` (single isomer, unassigned) [Example 24B], the half-inhibitory concentration (IC50) was 10000 to 100000 nM.

For `Nc1nc2c(ncn2[C@@H]2O[C@@H]3COP(=O)(S)OCCn4c(nc5cncnc54)COP(=O)(S)O[C@@H]2[C@@H]3O)c(=O)[nH]1` (single isomer, unassigned) [Example 15C], the IC50 was under 1000 nM.

For the compound `Nc1nc2c(ncn2[C@@H]2O[C@@H]3COP(=O)(S)OCCn4c(nc5c(=O)[nH]cnc54)COP(=O)(S)O[C@@H]2[C@@H]3F)c(=O)[nH]1` (single isomer, unassigned) [Example 3D], the IC50 fell in the range of 1000 to 9990 nM.

For the compound `Nc1nc2c(nnn2[C@@H]2O[C@@H]3COP(=O)(S)OCCn4c(nc5cncnc54)COP(=O)(S)O[C@@H]2[C@@H]3F)c(=O)[nH]1` (single isomer, unassigned) [Example 24D], the IC50 was under 1000 nM.

On to `Nc1nc2c(ncn2[C@@H]2O[C@@H]3COP(=O)(O)OCCn4c(nc5cncnc54)COP(=O)(S)O[C@@H]2[C@@H]3F)c(=O)[nH]1` (single isomer, unassigned) [Example 5A], for which the IC50 was under 1000 nM.

For the compound `Nc1nc2c(ncn2[C@@H]2O[C@@H]3COP(=S)(S)OCCn4c(nc5cncnc54)COP(=O)(S)O[C@@H]2[C@@H]3F)c(=O)[nH]1` (stereo partly drawn) [Example 39, (1S,21R,23R,24R)-23-(2-Amino-6-oxo-6,9-dihydro-1H-purin-9-yl)-24-fluoro-3,18-disulfanyl-18-sulfanylidene-2,4,17,19,22-pentaoxa-7,10,12,14-tetraaza-3lambda5,18lambda5-diphosphatetracyclo[19.2.1.06,14.08,13]tetracosa-6,8(13),9,11-tetraen-3-one], the half-inhibitory concentration (IC50) was under 1000 nM.

Regarding `Nc1nc2c(ncn2[C@@H]2O[C@@H]3COP(=O)(S)OCCn4c(nc5cncnc54)COP(=O)(S)O[C@@H]2[C@@H]3O)c(=O)[nH]1` (single isomer, unassigned) [Example 15D], the IC50 is under 1000 nM.

For `Nc1nc2c(ncn2[C@@H]2O[C@@H]3COP(=O)(O)OCCn4c(nc5cncnc54)COP(=O)(S)O[C@@H]2[C@@H]3F)c(=O)[nH]1` (single isomer, unassigned) [Example 5B], the concentration for half-maximal inhibition (IC50) lay within 1000 to 9990 nM.

Consider `Nc1nc2c(ncn2[C@@H]2O[C@@H]3COP(=O)(S)OCCn4c(nc5cc(Cl)cnc54)COP(=O)(S)O[C@@H]2[C@@H]3F)c(=O)[nH]1` (single isomer, unassigned) [Example 14A], for which the IC50 was under 1000 nM.

Turning to `Nc1nc2c(nc3n2CCOP(=O)(S)OC[C@H]2O[C@@H](n4cnc5c(N)ncnc54)[C@H](OP(=O)(S)OC3)[C@@H]2F)c(=O)[nH]1` (single isomer, unassigned) [Example 23D], the IC50 is 10000 to 100000 nM.

`Nc1nc2c(ncn2[C@@H]2O[C@@H]3COP(=O)(S)OCCn4nc(-c5cncs5)nc4COP(=O)(S)O[C@@H]2[C@@H]3F)c(=O)[nH]1` (single isomer, unassigned) [Example 16A]: the 50% inhibitory concentration (IC50) is under 1000 nM.

Consider `C[C@H]1COP(=O)(S)OC[C@H]2O[C@@H](n3cnc4c(=O)[nH]c(N)nc43)[C@H](OP(=O)(S)OCc3nc4cncnc4n31)[C@@H]2F` (single isomer, unassigned) [Example 20D], for which the IC50 lay in the range of 10000 to 100000 nM.

Consider `Nc1nc2c(nnn2[C@@H]2O[C@@H]3COP(=O)(S)OCCn4c(nc5cncnc54)COP(=O)(S)O[C@@H]2[C@@H]3F)c(=O)[nH]1` (single isomer, unassigned) [Example 24C], for which the IC50 was under 1000 nM.

As to `Nc1nc2ncn([C@@H]3O[C@@H]4COP(=O)(S)OCCn5c(nc6cc(Cl)cnc65)COP(=O)(S)O[C@@H]3[C@@H]4F)c2c(=O)[nH]1` (single isomer, unassigned) [Example 13A], the IC50 was under 1000 nM.

For `Nc1nc2c(nnn2[C@@H]2O[C@@H]3COP(=O)(S)OCCn4c(nc5cncnc54)COP(=O)(S)O[C@@H]2[C@@H]3F)c(=O)[nH]1` (single isomer, unassigned) [Example 24A], the IC50 was under 1000 nM.

In the case of `Nc1nc2c(ncn2[C@@H]2O[C@@H]3COP(=O)(S)OCCn4c(nc5cncnc54)COP(=O)(S)O[C@@H]2[C@@H]3O)c(=O)[nH]1` (mixture of isomers) [Example 15A, (1R,21R,23R,24R)-23-(2-Amino-6-oxo-6,9-dihydro-1H-purin-9-yl)-24-hydroxy-3,18-disulfanyl-2,4,17,19,22-pentaoxa-7,10,12,14-tetraaza-3lambda5,18lambda5-diphosphatetracyclo[19.2.1.06,14.08,13]tetracosa-6,8,10,12-tetraene-3,18-dione], the concentration for half-maximal inhibition (IC50) was under 1000 nM.

For `Nc1nc2c(ncn2[C@@H]2O[C@@H]3COP(=O)(S)OCCn4nc(-c5ccncc5)nc4COP(=O)(S)O[C@@H]2[C@@H]3F)c(=O)[nH]1` (single isomer, unassigned) [Example 34C], the IC50 is under 1000 nM.

As for `Nc1nc2c(ncn2[C@@H]2O[C@@H]3COP(=O)(S)OCCn4c(nc5cnc(C6CC6)nc54)COP(=O)(S)O[C@@H]2[C@@H]3F)c(=O)[nH]1` (single isomer, unassigned) [Example 12C], the IC50 is under 1000 nM.

Consider `Nc1nc2c(ncn2[C@@H]2O[C@@H]3COP(=O)(S)OCCn4c(nc5cnc(C6CC6)nc54)COP(=O)(S)O[C@@H]2[C@@H]3F)c(=O)[nH]1` (single isomer, unassigned) [Example 12D], for which the IC50 was in the range of 1000 to 9990 nM.

As to `Nc1nc2c(ncn2[C@@H]2O[C@@H]3COP(=O)(S)OCCn4nc(-c5cncs5)nc4COP(=O)(S)O[C@@H]2[C@@H]3F)c(=O)[nH]1` (single isomer, unassigned) [Example 16C], the half-maximal inhibitory concentration (IC50) was under 1000 nM.
